Target: T1, Human TREM2 (Homo sapiens, UniProt Q9NZC2)
T1 construct: expressed in transfected cells
Experiment: Human TREM2 cellular phospho-Syk AlphaLISA assay in HEK293/DAP12+TREM2 stable cell line
Assay type: cell-based
Conditions: HEK293/DAP12+TREM2 cells; for Emax: maximal response relative to the maximal response of the reference agonist, phospho-Syk AlphaLISA; for EC50: phospho-Syk (Tyr525/526) AlphaLISA signal, 30 min incubation
Source text: Human TREM2, in vitro Measurement of Triggering Receptor Expressed on Myeloid Cells 2 activity using cellular phosphorylation of Spleen Tyrosine Kinase (“Syk”) Assay
HEK-293 cells were co-transfected with separate plasmids encoding TREM2 and DAP12 to generate a stable cell line. After antibiotic selection, functional clone pool analysis and two successive limiting dilutions, the final clone “HEK293/DAP12+TREM2” underwent a qPCR analysis and a pharmacological validation.
TREM2 signaling through DAP12 was monitored in the HEK293/DAP12+TREM2 stable cell line by measuring the phosphorylation levels of the Syk kinase using the commercially available AlphaLISA SureFire Ultra p-SYK (Tyr525/526) Assay Kit (PerkinElmer #ALSU-PSYK), based on the Perkin Elmer AlphaScreen/AlphaLISA technology.
Compounds are transferred to the test plate and tested in full dose response, 8 concentrations in quadruplicate data points. Compound serial dilutions were performed at Cybi-Felix instrument in 100% DMSO and the dose response curves were assembled in automated fashion in 384MPT at Hamilton STARlet instrument. All the stock solutions were prepared at 20 mM in 100% DMSO. For compounds testing, the starting concentration was 100 μM, dilution steps 1:6. A different concentration's range was adapted for compound's activity based on the preliminary results. Finally, a 384MPT reformatted for all compounds at 8 concentrations, quadruplicates, was used as “mother to child” process with a CyBi@-Well dispenser in which 1 μL of each compound was moved into a destination plate pre-filled with […] of EMEM cell culture medium (BIOWHITTAKER_cat.BE12-125F), thus obtaining 3× concentrated compounds working solution. In columns 1-2 and 23-24 the control wells were added. In particular, dose response curves of a reference control agonist were included in column 1 and 24 as reference control agonist (Reference control agonists used include Human TREM2 polyclonal Antibody AF1828: R&D Systems; Human TREM2 monoclonal Antibody MAB1828: R&D Systems). The dose response curves were tested starting at 30 μM, dilution step 1:6. Both “source” compound plate and “destination” compound plate were barcoded and a relationship between the two plates was thus generated.
HEK293/DAP12+TREM2 cells were cultured in EMEM medium supplemented with IX Penicillin/Streptomycin (BIOWHITTAKER_cat.DE17-602E), ULTRAGLUTAMINE I 200 mM, 10% Fetal Bovine Serum plus antibiotics referred to as “HEK293 Culture Medium”. The day before the experiment, cells were detached by gentle wash with DPBS, followed by 5 min incubation at 37° C. with Trypsin solution. Cells were then diluted in HEK293 Culture Medium without antibiotics, counted and seeded into 384-well poly-D-Lysine coated microplates black/clear bottom (GREINER 781946) at a density of 10,000 cells/well in 25 μL/well by the use of a MATRIX WellMate dispenser. Plates were placed into a humidified cell culture incubator at 37° C. with 5% CO2 until the experimental day. 20-24 hours after seeding mature medium was removed and replaced with 10 μL/well of EMEM cell medium supplemented with 0.1% Pluronic F-68 non-ionic surfactant (Thermofisher, 24040032), referred to as “Assay Buffer”, using the CyBi@-Well instrument. Then 5 μL/well of Assay Buffer containing 3× concentrated test compounds or the reference control agonist (in 0.5% final DMSO concentration) were added to the cells with the CyBi@-Well instrument. Cell plates were incubated for 30 min into a humidified cell culture incubator at 37° C. with 5% CO2, then the medium was removed by manually discard. 20 μL/well of lysis buffer were dispensed using the CyBi@-Well instrument and plates were incubated for 10 min at room temperature on a plate shaker (350 rpm). Then, 10 μL/well of lysate were transferred to the Alpha plates.
The CyBi@-Well instrument was used to dispense 5 μL/well of AlphaLISA Acceptor Bead Solution in IX Immunoassay buffer (Perkin Elmer AL000F). […]

T1 sequence (Q9NZC2 19-230): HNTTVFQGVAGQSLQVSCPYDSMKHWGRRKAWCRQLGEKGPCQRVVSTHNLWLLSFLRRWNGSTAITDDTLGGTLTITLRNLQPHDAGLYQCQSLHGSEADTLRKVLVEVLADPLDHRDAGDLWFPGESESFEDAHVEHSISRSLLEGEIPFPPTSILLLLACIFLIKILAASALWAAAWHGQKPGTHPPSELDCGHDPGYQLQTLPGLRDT
T1 sequence (O43914 22-113 partner): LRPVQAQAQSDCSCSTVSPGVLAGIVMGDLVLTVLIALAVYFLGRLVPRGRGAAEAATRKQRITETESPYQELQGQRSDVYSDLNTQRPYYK

Emax [%] | EC50 [nM] | Compound
< 75 | 10 to 100 | Cn1c(C(F)(F)F)nc2c(-c3ccc(F)cc3F)nc(N3CC(Oc4cnn(C5CC5)c4)C3)nc2c1=O [Example 32, 6-(3-((1-cyclopropyl-1H-pyrazol-4-yl)oxy)azetidin-1-yl)-8-(2,4-difluorophenyl)-3-methyl-2-(trifluoromethyl)pyrimido[5,4-d]pyrimidin-4(3H)-one]
75 to 110 | 10 to 100 | Cn1c(C(F)(F)F)nc2c(-c3ccc(C#N)cc3)nc(N3CC(Oc4cnn(C5CC5)c4)C3)nc2c1=O [Example 35, 4-(2-(3-((1-cyclopropyl-1H-pyrazol-4-yl)oxy)azetidin-1-yl)-7-methyl-8-oxo-6-(trifluoromethyl)-7,8-dihydropyrimido[5,4-d]pyrimidin-4-yl)benzonitrile]

Second part, the molecule before the results:

Compound | Emax [%] | EC50 [nM]
CC(C)n1cc(OC2CN(c3nc(-c4ccc(C#N)cc4F)c4nc(C(F)(F)F)n(C)c(=O)c4n3)C2)cn1 [Example 11, 3-fluoro-4-(2-(3-((1-isopropyl-1H-pyrazol-4-yl)oxy)azetidin-1-yl)-7-methyl-8-oxo-6-(trifluoromethyl)-7,8-dihydropyrimido[5,4-d]pyrimidin-4-yl)benzonitrile] | 75 to 110 | 10 to 100
Cn1c(C(F)(F)F)nc2c(-c3ccc(C#N)cc3F)nc(N3CC(Oc4cnc(C#N)cn4)C3)nc2c1=O [Example 7, 5-((1-(4-(4-cyano-2-fluorophenyl)-7-methyl-8-oxo-6-(trifluoromethyl)-7,8-dihydropyrimido[5,4-d]pyrimidin-2-yl)azetidin-3-yl)oxy)pyrazine-2-carbonitrile] | < 75 | 100 to 1000
Cn1c(C(F)(F)F)nc2c(-c3ccc(C#N)cc3F)nc(N3CC(Oc4cncnc4)C3)nc2c1=O [Example 27, 3-fluoro-4-(7-methyl-8-oxo-2-(3-(pyrimidin-5-yloxy)azetidin-1-yl)-6-(trifluoromethyl)-7,8-dihydropyrimido[5,4-d]pyrimidin-4-yl)benzonitrile] | < 75 | 100 to 1000

From patent US12459952B2, “TREM2 modulators” (Muna Therapeutics ApS, priority 2024, dated 2025)
